In patent US8637246B2, “BRAF mutations conferring resistance to BRAF inhibitors” (Dana-Farber Cancer Institute, Inc., priority 2010, dated 2014):

Key:
[1] = biological target: BRAF V600E-P686Q (Homo sapiens, UniProt P15056, P686Q/V600E); experiment: Western blot of p-MEK1/2 and p-ERK1/2 in transfected 293T cells (BRAF V600E-P686Q); assay type: cell-based; conditions: 293T cells transfected with BRAF V600E-P686Q; 0, 0.08, 0.4, 2, 5 and 10 μM for 16 hours; immunoblot (FIG. 8)
Description: (§1) 293T cells were transfected with 6 μg of pWZL(BLAST)-BRAF for each putative resistance allele and subsequently treated with a range of concentrations of the BRAF(V600E) inhibitor PLX4720 (0, 0.08, 0.4, 2, 5 and 10 μM) for 16 hours. Immunoblot studies were performed using standard procedures. Briefly, the treated cells were lysed with TNN buffer containing protease inhibitor (Roche), NaF and NaVO3 (1 mM each). Lysates were quantified (Bradford assay), denatured (95° C.), and resolved by SDS gel electrophoresis. Proteins was transferred to nitrocellulose membranes and probed with primary antibodies recognizing BRAF (Santa Cruz; 1:10,000 dilution), p-ERK1/2, p-MEK1/2 (Ser-217/221), and α-tubulin (Cell Signaling Technology; 1:1,000 dilution). After incubation with the appropriate secondary antibody (anti-rabbit or anti-mouse IgG, HRP-linked; 1:1,000 dilution) (Cell Signaling Technology), proteins were detected using chemiluminescence (Pierce).

[2] = biological target: BRAF-V600E-T521K (Homo sapiens, UniProt P15056, T521K/V600E); experiment: Western blot of p-MEK1/2 and p-ERK1/2 in transfected 293T cells (BRAF-V600E-T521K); assay type: cell-based; conditions: 293T cells transfected with BRAF-V600E-T521K; 0, 0.08, 0.4, 2, 5 and 10 μM for 16 hours; immunoblot (FIG. 8)
BRAF-V600E-T521K, sequence (P15056 whole entry T521K/V600E): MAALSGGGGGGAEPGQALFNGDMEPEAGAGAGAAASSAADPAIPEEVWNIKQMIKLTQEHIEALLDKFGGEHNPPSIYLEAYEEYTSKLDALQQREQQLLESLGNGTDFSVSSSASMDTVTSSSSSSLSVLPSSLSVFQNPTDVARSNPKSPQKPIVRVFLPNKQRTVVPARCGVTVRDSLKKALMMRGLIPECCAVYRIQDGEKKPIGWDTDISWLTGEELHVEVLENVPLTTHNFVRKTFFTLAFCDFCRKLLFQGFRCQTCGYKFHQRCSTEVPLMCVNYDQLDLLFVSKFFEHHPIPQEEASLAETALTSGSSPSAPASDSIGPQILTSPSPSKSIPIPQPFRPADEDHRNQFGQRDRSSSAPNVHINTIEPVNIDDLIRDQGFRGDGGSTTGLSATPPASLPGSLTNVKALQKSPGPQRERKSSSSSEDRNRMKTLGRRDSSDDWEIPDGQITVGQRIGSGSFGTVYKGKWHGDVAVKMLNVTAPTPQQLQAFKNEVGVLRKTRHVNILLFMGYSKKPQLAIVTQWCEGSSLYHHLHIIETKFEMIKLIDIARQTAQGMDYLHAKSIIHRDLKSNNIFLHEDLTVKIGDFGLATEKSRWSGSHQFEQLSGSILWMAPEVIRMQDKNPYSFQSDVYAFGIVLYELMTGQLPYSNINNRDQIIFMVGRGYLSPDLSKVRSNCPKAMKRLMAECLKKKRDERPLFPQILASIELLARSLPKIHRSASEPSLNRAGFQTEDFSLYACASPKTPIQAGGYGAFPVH
Description: as §1

[3] = system: A375 cells expressing a mutant BRAF polypeptide; conditions: A375 cells expressing a mutant BRAF polypeptide with one or more listed resistance mutations (A29V ... C748F)
[4] = system: A375 cells expressing a wild-type BRAF polypeptide

BRAF V600E-P686Q, sequence (P15056 whole entry V600E/P686Q): as the sequence (P15056 whole entry T521K/V600E) above, with K521T, P686Q counted along it

Row | increase in phosphorylated MEK1/2 and ERK1/2 in the presence of increasing concentrations of inhibitor [1] | increase in phosphorylated MEK1/2 and ERK1/2 in the presence of increasing concentrations of inhibitor [2] | SMILES | sensitivity of cells to the RAF inhibitor [3] | sensitivity of cells to the RAF inhibitor [4]
1 | sustained | sustained | CCCS(=O)(=O)Nc1ccc(F)c(C(=O)c2c[nH]c3ncc(Cl)cc23)c1F [PLX4720] | – | –
2 | – | – | Cn1c(Nc2ccc(C(F)(F)F)cc2)nc2cc(Oc3ccnc(-c4ncc(C(F)(F)F)[nH]4)c3)ccc21 [RAF-265] | resistant | sensitive
